Values belong to the compound of their own block, whether it stands above or below them.
Experiments:
Glucagon receptor = Glucagon receptor (Homo sapiens, UniProt P47871); experiment: Antagonist activity at full length human recombinant GCGR transfected in HEK293 cells assessed as inhibition of glucagon-stimulated cAMP by LANCE assay; type: functional, cell-based
[1] = Cmax in C57 black mouse at 20 mg/kg, po; type: ADME, organism-based; set-up: dose 20 mg/kg, route oral; conditions: in vivo
[2] = Oral bioavailability in C57 black mouse at 20 mg/kg; type: ADME, organism-based; conditions: in vivo
[3] = AUClast in C57 black mouse at 20 mg/kg, po; type: ADME, organism-based; set-up: dose 20 mg/kg, time 0 - last, route oral; conditions: in vivo
[4] = Clearance in C57 black mouse at 5 mg/kg, iv; type: ADME, organism-based; conditions: in vivo
[5] = Elimination half life in C57 black mouse at 5 mg/kg, iv; type: ADME, organism-based; conditions: in vivo, read-out: beta t1/2 (converted)
[6] = Volume of distribution at steady state in C57 black mouse at 5 mg/kg, iv; type: ADME, organism-based; conditions: in vivo, read-out: Vdss
[7] = Elimination half life in C57 black mouse at 20 mg/kg, po; type: ADME, organism-based; conditions: in vivo, read-out: beta t1/2 (converted)
[8] = Oral bioavailability in Sprague Dawley rat at 10 mg/kg; type: ADME, organism-based; conditions: in vivo
[9] = Clearance in Sprague Dawley rat at 2 mg/kg, iv; type: ADME, organism-based; conditions: in vivo
[10] = Cmax in Sprague Dawley rat at 10 mg/kg, po; type: ADME, organism-based; set-up: dose 10 mg/kg, route oral; conditions: in vivo
[11] = Volume of distribution at steady state in Sprague Dawley rat at 2 mg/kg, iv; type: ADME, organism-based; conditions: in vivo, read-out: Vdss
[12] = Elimination half life in Sprague Dawley rat at 2 mg/kg, iv; type: ADME, organism-based; conditions: in vivo, read-out: beta t1/2 (converted)
[13] = AUClast in Sprague Dawley rat at 10 mg/kg, po; type: ADME, organism-based; set-up: dose 10 mg/kg, route oral, time 0 - last; conditions: in vivo
[14] = Elimination half life in Sprague Dawley rat at 10 mg/kg, po; type: ADME, organism-based; conditions: in vivo, read-out: beta t1/2 (converted)

Glucagon receptor, sequence (P47871 whole entry): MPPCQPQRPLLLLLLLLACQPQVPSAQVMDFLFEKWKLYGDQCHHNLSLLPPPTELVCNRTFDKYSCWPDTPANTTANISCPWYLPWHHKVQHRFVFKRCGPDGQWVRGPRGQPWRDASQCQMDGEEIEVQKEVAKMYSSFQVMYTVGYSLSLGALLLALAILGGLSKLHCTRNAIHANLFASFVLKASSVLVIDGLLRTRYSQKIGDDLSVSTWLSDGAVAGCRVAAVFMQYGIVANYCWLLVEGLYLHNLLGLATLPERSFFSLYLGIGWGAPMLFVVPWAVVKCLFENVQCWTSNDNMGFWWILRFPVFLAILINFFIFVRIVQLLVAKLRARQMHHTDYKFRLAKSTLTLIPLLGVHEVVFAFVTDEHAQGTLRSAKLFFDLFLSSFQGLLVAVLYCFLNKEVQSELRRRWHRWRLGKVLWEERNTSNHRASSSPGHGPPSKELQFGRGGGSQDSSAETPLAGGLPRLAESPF

Compound: Cc1cc(-c2ccc(C(C)(C)C)cc2)cc2cn(C(CC(C)C)c3ccc(C(=O)NCCC(=O)O)cc3)nc12 (racemic)
- Ki (Glucagon receptor): 1340 nM

Compound: CC(C)CC(c1ccc(C(=O)NCCC(=O)O)cc1)n1ncc2cc(-c3ccc(N4CCN(C)CC4)cc3)ccc21 (racemic)
- Ki (Glucagon receptor): 1250 nM

Compound: Cc1cc(C(F)(F)F)ccc1-c1cc2cnn(C(CC(C)C)c3ccc(C(=O)NCCC(=O)O)nc3)c2cc1C (racemic)
- half-life [7]: 4.8 h
- Cmax [1]: 11.1 µM
- bioavailability [2]: 94.7%
- AUC(0-t) [3]: 111 µM·h
- clearance [4]: 4.83 mL/min/kg
- half-life [5]: 5 h
- Vd [6]: 1.85 L/kg

Compound: Cc1cc(-c2ccc(C(C)(C)C)cc2)cc2ccn(C(CC(C)C)c3ccc(C(=O)NCCC(=O)O)nc3)c12 (racemic)
- Ki (Glucagon receptor): > 2600 nM

Compound: CC(C)CC(c1ccc(C(=O)NCCC(=O)O)cc1)n1ncc2cc(-c3ccc(N4CCOCC4)cc3)ccc21 (racemic)
- Ki (Glucagon receptor): 3000 nM

Compound: CC(C)CC(c1ccc(C(=O)NCCC(=O)O)cc1)n1ncc2cc(-c3cc(Cl)cc(Cl)c3)ccc21 (racemic)
- Ki (Glucagon receptor): 1650 nM

Compound: Cc1cc(C(F)(F)F)ccc1-c1cc(F)c2c(ccn2C(CC(C)C)c2ccc(C(=O)NCCC(=O)O)cc2)c1C (racemic)
- Ki (Glucagon receptor): 700 nM

Continued, values first:

- Cmax [1]: 18.5 µM
- bioavailability [2]: 97.7%
- AUC(0-t) [3]: 290 µM·h
- clearance [4]: 1.89 mL/min/kg
- half-life [5]: 6.6 h
- Vd [6]: 0.9 L/kg
- Ki (Glucagon receptor): 19 nM
Compound: Cc1cc(C(F)(F)F)ccc1-c1ccc2nn(C(CC(C)C)c3ccc(C(=O)NCCC(=O)O)cc3)cc2c1Cl (racemic)

- Ki (Glucagon receptor): 125 nM
Compound: CC(C)CC(c1ccc(C(=O)NCCC(=O)O)cc1)n1ncc2cc(-c3ccc(C(C)(C)C)cc3)ccc21 (racemic)

- Ki (Glucagon receptor): 85 nM
Compound: Cc1cc(C(F)(F)F)ccc1-c1ccc2c(ccn2C(CC(C)C)c2ccc(C(=O)NCCC(=O)O)cc2)c1 (racemic)

- Ki (Glucagon receptor): 260 nM
Compound: CC(C)CC(c1ccc(C(=O)NCCC(=O)O)cc1)n1ncc2cc(-c3ccc(C(F)(F)F)cc3)ccc21 (racemic)

- Ki (Glucagon receptor): 285 to 650 nM
Compound: CC(C)CC(c1ccc(C(=O)NCCC(=O)O)cc1)n1ncc2cc(-c3ccc(OC(F)(F)F)cc3)ccc21 (racemic)

- Ki (Glucagon receptor): 110 nM
Compound: CC(C)CC(c1ccc(C(=O)NCCC(=O)O)cc1)n1ccc2cc(-c3ccc(C(C)(C)C)cc3)ccc21 (racemic)

- bioavailability [8]: 51.7%
- half-life [7]: 3.9 h
- Cmax [1]: 8.1 µM
- clearance [9]: 12.2 mL/min/kg
- bioavailability [2]: 68.7%
- AUC(0-t) [3]: 116 µM·h
- Cmax [10]: 1.4 µM
- clearance [4]: 3.77 mL/min/kg
- half-life [5]: 3.7 h
- Vd [11]: 3.65 L/kg
- Vd [6]: 1.05 L/kg
- half-life [12]: 4.6 h
- AUC(0-t) [13]: 14.3 µM·h
- Ki (Glucagon receptor): 115 nM
- half-life [14]: 5.2 h
Compound: CC(C)CC(c1ccc(C(=O)NCCC(=O)O)cc1)n1ccc2cc(-c3ccc(C(F)(F)F)cc3)ccc21 (racemic)

- Ki (Glucagon receptor): 29 nM
Compound: Cc1c(-c2ccc(C(F)(F)F)cc2Cl)ccc2nn(C(CC(C)C)c3ccc(C(=O)NCCC(=O)O)cc3)cc12 (racemic)

— ChEMBL document CHEMBL4387743, “Design, synthesis and structure activity relationships of indazole and indole derivatives as potent glucagon receptor antagonists” (Bioorg Med Chem Lett, 2019)
